The values below come from patent EP0845217A1, “Inhibiting undesirable taste in oral compositions” (priority 1996, dated 1998).

The test system of this experiment is mud puppy taste cells. As to the kind of experiment: Response of isolated taste cells to bitter-tasting compounds, intracellular calcium fluorescence. The experiment is classed as cell-based. On the procedure:
Taste cells are isolated from the mud puppy, a type of salamander (S. C. Kinnamon, et al, Chemical Senses 13: 355 - 366, 1988). Briefly, a fresh mud puppy tongue is incubated with collagenase, the non-gustatory epithelium is peeled off the surface, and individual taste buds are gently drawn into a micropipette using a dissecting microscope at 50X magnification. The taste buds are plated into small vessels, that are coated with Cell-Tak, containing culture media. The taste cells can remain viable up to 18 days and maintain normal functions (C. Ruiz, et al, Experimental Cell Biology of Taste and Olfaction, Current Techniques and Protocols, A. I. Spielman and J. G. Brand, eds., CRC Press, 1995, pp. 79 - 84). The taste cells are labeled intracellularly with a marker compound that fluoresces in a dose-dependent fashion to calcium ion concentration. Since an increase in the intracellular calcium ion concentration is one of the last steps in converging biochemical signal transduction pathways for bitterness, the fluorescent marker correlates with taste cell response to bitterness (D. Restrepo, et al, Experimental Cell Biology of Taste and Olfaction, Current Techniques and Protocols, A. I. Spielman and J. G. Brand, eds., CRC Press, 1995, pp. 387 - 398). Labeled taste cells are observed microscopically using image analysis software. Using a micropipette, taste cells are exposed to bitter-tasting compounds by adding the compounds in media near the taste cell. Cells that respond to the bitter-tasting compound show an increase in fluorescence intensity. Bitter inhibitors are tested by adding them to the test solution with the bitter-tasting compound. The response of individual taste cells to bitter-tasting compounds and to bitter-tasting compounds plus inhibitor are monitored by measuring the fluorescent intensity using a microscope. Images are stored electronically and image analysis software is used to analyze the data (D. Restrepo, et al, Biophysical Journal 64: 1961 - 1966, 1993).
(In general: Calcium flux is commonly read through the fluorescence of an indicator in the cells.)

As for vanillylmonophosphate [VMP], the “effect on taste cell response to denatonium benzoate” value (inhibitor mixed with denatonium benzoate) was “decreases the taste cell response”. For the same substance, where the note is “inhibitor mixed with dextromethorphan”, the “effect on taste cell response to dextromethorphan” value was “decreases the taste cell response”.
